Results reported in patent US10774071B2, “PD-1/PD-L1 inhibitors” (Gilead Sciences, Inc., priority 2018, dated 2020).
Read-outs that look alike come from different tables or passages of the source.

How the values were obtained:
[1] = molecular target: PD-1/PD-L1 (Homo sapiens (Human), UniProt Q9NZQ7); test: PD-1/PD-L1 biochemical protein-protein interaction assay (ALPHA); assay type: binding; details: read-out: IC50 PD-L1-PD1
[2] = molecular target: PD-L1 (Homo sapiens (Human), UniProt Q9NZQ7); test: PD-L1/PD-L1 dimerization biochemical protein-protein interaction assay (ALPHA); assay type: binding; details: read-out: AC50 PDL1 Dimer 1 nM
[3] = molecular target: FFA1 (h) (GRP40) (Homo sapiens (Human), UniProt O14842); test: GPR40 functional assay, agonist effect (intracellular Ca2+, fluorimetry); assay type: cell-based; details: HEK293, human recombinant GPR40 in HEK-293 cells, control 100 μM linoleic acid
Experimental: (§1) Select compounds were tested in a functional GRP40 assay as described in Briscoe, C. P. et al. (Brit. J. Pharmacol., (2006), 148: 619-628) to determine agonist/antagonist activity. […] Using a HEK-293 cell line transiently transduced to express GPR40, the agonist/antagonist activity of select compounds has been assessed.

[4] = molecular target: FFA1 (h) (GPR40) (Homo sapiens (Human), UniProt O14842); test: GPR40 functional assay, antagonist effect (intracellular Ca2+, fluorimetry); assay type: cell-based; details: stimulus linoleic acid 20000 nM; for inhibition at 10 µM: HEK293, human recombinant GPR40 in HEK-293 cells
Experimental: as §1

[5] = 0.3 nM His tagged PD-L1, 2.5 nM biotinylated Fc-PD-1, readings of 0.064 nM are equal to or less than 0.064 nM
[6] = 0.5 nM His tagged PD-L1 and 0.5 nM FLAG tagged PD-L1, Table 4A
[7] = 1st replicate, read-out: % of control agonist response, 1st
[8] = 2nd replicate, read-out: % of control agonist response, 2nd
[9] = mean, read-out: % of control agonist response, Mean
[10] = 1st replicate, read-out: % inhibition of control agonist response, 1st
[11] = 2nd replicate, read-out: % inhibition of control agonist response, 2nd
[12] = mean, read-out: % inhibition of control agonist response, Mean
[13] = 0.3 nM His tagged PD-L1, 2.5 nM biotinylated Fc-PD-1, Table 3B
[14] = 0.5 nM His tagged PD-L1 and 0.5 nM FLAG tagged PD-L1, Table 4B

Chain of FFA1 (h) (GPR40) (O14842 whole entry): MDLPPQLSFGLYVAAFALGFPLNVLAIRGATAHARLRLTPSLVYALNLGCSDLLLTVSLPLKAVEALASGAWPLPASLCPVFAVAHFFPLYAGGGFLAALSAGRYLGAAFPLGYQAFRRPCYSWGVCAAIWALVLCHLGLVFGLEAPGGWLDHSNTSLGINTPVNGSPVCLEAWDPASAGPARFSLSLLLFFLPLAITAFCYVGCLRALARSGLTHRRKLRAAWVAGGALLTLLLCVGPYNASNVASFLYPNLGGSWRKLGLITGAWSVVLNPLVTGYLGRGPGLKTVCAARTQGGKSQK
Chain of FFA1 (h) (GRP40) (O14842 whole entry): as above
Chain of PD-1/PD-L1 (Q9NZQ7 19-238): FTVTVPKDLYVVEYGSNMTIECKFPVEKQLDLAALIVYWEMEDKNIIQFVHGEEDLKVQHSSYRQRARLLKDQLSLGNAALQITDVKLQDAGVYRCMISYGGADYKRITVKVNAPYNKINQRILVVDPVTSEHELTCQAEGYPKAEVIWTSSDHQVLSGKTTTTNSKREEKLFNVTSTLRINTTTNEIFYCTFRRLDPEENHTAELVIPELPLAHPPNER
Chain of PD-L1 (Q9NZQ7 19-238): as above
Chain of PD-L1 (Q9NZQ7 19-238): as above

In the case of `COc1nc(-c2cccc(-c3cccc4c3CC[C@@H]4Nc3nc(OC)c(CN4CC5(C(=O)O)CCC4CC5)nc3C(F)(F)F)c2Cl)ccc1CNC[C@@H]1CCC(=O)N1` [A-18, 2-((5-(((S)-4-(2-chloro-3-(6-methoxy-5-(((((S)-5-oxopyrrolidin-2-yl)methyl)amino)methyl)pyridin-2-yl)phenyl)-2,3-dihydro-1H-inden-1-yl)amino)-3-methoxy-6-(trifluoromethyl)pyrazin-2-yl)methyl)-2-azabicyclo[2.2.2]octane-4-carboxylic acid], the IC50 [1, 5] is reported as ≤ 0.064 nM, the AC50 [2, 6] is reported as 15.7 nM and the activity at 10 µM [3, 7] is reported as -0.6%. For the same compound, the activity at 10 µM [3, 8] was -1.9%, the activity at 10 µM [3, 9] was -1.3% and the “% inhibition of control agonist response, 1st” value ([4]; 10 μM, human recombinant GPR40 in HEK-293 cells, 1st replicate) was 8.3%. For the same compound, the “% inhibition of control agonist response, 2nd” value ([4]; 10 μM, human recombinant GPR40 in HEK-293 cells, 2nd replicate) was 17.4% and the “% inhibition of control agonist response, Mean” value ([4]; 10 μM, human recombinant GPR40 in HEK-293 cells, mean) was 12.8%.
`COc1nc(-c2cccc(-c3cccc4c3CC[C@@H]4Nc3nc(OC)c(CNC4(C(=O)O)CC4)cc3C(F)(F)F)c2Cl)ccc1CNC[C@@H]1CCC(=O)N1` [A-41] was tested, and the IC50 [1, 5] was ≤ 0.064 nM, the AC50 [2, 6] was 7.6 nM and the activity at 10 µM [3, 7] was 1.1%. For the same compound, the activity at 10 µM [3, 8] was 0.1%, the activity at 10 µM [3, 9] was 0.6% and the inhibition at 10 µM [4, 10] was 23.1%. It also gave an inhibition at 10 µM [4, 11] of 13.1% and an inhibition at 10 µM [4, 12] of 18.1%.
In the case of `COc1nc(-c2cccc(-c3cccc4c3CC[C@@H]4Oc3nc(OC)c(CNC4(C(=O)O)CC4)cc3C(F)(F)F)c2Cl)ccc1CNC[C@@H]1CCC(=O)N1` [B-36], the IC50 [1, 13] is reported as 0.064 nM, the AC50 [2, 14] is reported as 3.77 nM and the activity at 10 µM [3, 7] is reported as -0.4%. The activity at 10 µM [3, 8] was -0.5%, the activity at 10 µM [3, 9] was -0.4% and the inhibition at 10 µM [4, 10] was 30.5%. For the same compound, the inhibition at 10 µM [4, 11] was 17% and the inhibition at 10 µM [4, 12] was 23.7%.
`COc1nc(-c2cccc(-c3cccc4c3CC[C@@H]4Oc3nc(OC)c(CN4CC5(C(=O)O)CCC4CC5)nc3C)c2Cl)ccc1CNC[C@@H]1CCC(=O)N1` [B-149] gave an IC50 [1, 13] of 0.064 nM, an AC50 [2, 14] of 32.4 nM and an activity at 10 µM [3, 7] of -2%. The activity at 10 µM [3, 8] was -0.5%, the activity at 10 µM [3, 9] was -1.2% and the inhibition at 10 µM [4, 10] was 8%. The inhibition at 10 µM [4, 11] was 15% and the inhibition at 10 µM [4, 12] was 11.5%.
In the case of `COc1nc(-c2cccc(-c3cccc4c3CC[C@@H]4Oc3nc(OC)c(CNC[C@H]4C[C@H](O)C4)cc3C(F)(F)F)c2Cl)ccc1CNC[C@@H]1CCC(=O)N1` [B-262], the IC50 [1, 13] is reported as 0.064 nM and the AC50 [2, 14] is reported as 2.2 nM.
`COc1nc(-c2cccc(-c3cccc4c3CC[C@@H]4Oc3nc(OC)c(CN[C@H]4C[C@](C)(O)C4)cc3C(F)(F)F)c2Cl)ccc1CNC[C@@H]1CCC(=O)N1` [B-263] showed an IC50 [1, 13] of 0.064 nM and an AC50 [2, 14] of 4.94 nM.
In the case of `COC[C@H](NCc1cc(C(F)(F)F)c(O[C@H]2CCc3c(-c4cccc(-c5ccc(CNC[C@@H]6CCC(=O)N6)c(OC)n5)c4Cl)cccc32)nc1OC)C(=O)O` [B-264], the IC50 [1, 13] is reported as 0.064 nM and the AC50 [2, 14] is reported as 6.55 nM.
`COc1nc(-c2cccc(-c3cccc4c3CC[C@@H]4Oc3nc(OC)c(CN[C@@H](C)C(N)=O)cc3C(F)(F)F)c2Cl)ccc1CNC[C@@H]1CCC(=O)N1` [B-265] showed an IC50 [1, 13] of 0.079 nM and an AC50 [2, 14] of 14.2 nM.
Compound `COc1nc(-c2cccc(-c3cccc4c3CC[C@@H]4Oc3nc(OC)c(CNCC(N)=O)cc3C(F)(F)F)c2Cl)ccc1CNC[C@@H]1CCC(=O)N1` [B-266] has an IC50 [1, 13] of 0.251 nM and an AC50 [2, 14] of 28.5 nM.
`COc1nc(-c2cccc(-c3cccc4c3CC[C@@H]4Oc3nc(OC)c(CNCCC(=O)O)cc3C(F)(F)F)c2Cl)ccc1CNC[C@@H]1CCC(=O)N1` [B-267] gave an IC50 [1, 13] of 0.064 nM and an AC50 [2, 14] of 7.26 nM.
Compound `COc1nc(-c2cccc(-c3cccc4c3CC[C@@H]4Oc3nc(OC)c(CN[C@H](C(=O)O)C4CC4)cc3C(F)(F)F)c2Cl)ccc1CNC[C@@H]1CCC(=O)N1` [B-268] has an IC50 [1, 13] of 0.064 nM and an AC50 [2, 14] of 3.76 nM.
`CC[C@H](NCc1cc(C(F)(F)F)c(O[C@H]2CCc3c(-c4cccc(-c5ccc(CNC[C@@H]6CCC(=O)N6)c(OC)n5)c4Cl)cccc32)nc1OC)C(=O)O` [B-269] showed an IC50 [1, 13] of 0.064 nM and an AC50 [2, 14] of 6.13 nM.
Work on `COc1nc(-c2cccc(-c3cccc4c3CC[C@@H]4Oc3nc(OC)c(CN[C@H](C(=O)O)C(C)C)cc3C(F)(F)F)c2Cl)ccc1CNC[C@@H]1CCC(=O)N1` [B-270] yielded an IC50 [1, 13] of 0.064 nM and an AC50 [2, 14] of 4.76 nM.
Compound `COc1nc(-c2cccc(-c3cccc4c3CC[C@@H]4Oc3nc(OC)c(CN[C@@H](C)C(=O)O)cc3C(F)(F)F)c2Cl)ccc1CNC[C@@H]1CCC(=O)N1` [B-271] has an IC50 [1, 13] of 0.064 nM and an AC50 [2, 14] of 1.91 nM.
For `COc1nc(-c2cccc(-c3cccc4c3CC[C@@H]4Oc3nc(OC)c(CNCC(=O)O)cc3C(F)(F)F)c2Cl)ccc1CNC[C@@H]1CCC(=O)N1` [B-272], the IC50 [1, 13] was 0.064 nM and the AC50 [2, 14] was 2.26 nM.
